In general, IC50 refers to the concentration that inhibits the measured activity by half.

This passage reports IC50 results from ChEMBL document CHEMBL4477252, “Optimization of microtubule affinity regulating kinase (MARK) inhibitors with improved physical properties” (Bioorg Med Chem Lett, 2016).

For assay [1], the target named is Serine/threonine-protein kinase PAK 1 (Homo sapiens, UniProt Q13153). Briefly: Inhibition of full-length recombinant human GST-tagged PAK1 expressed in baculovirus expression system by Z'-LYTE assay.
For assay [2], the target named is T1, MAP kinase-activated protein kinase 5 (Homo sapiens, UniProt Q8IW41).
T1 sequence (Q8IW41 whole entry): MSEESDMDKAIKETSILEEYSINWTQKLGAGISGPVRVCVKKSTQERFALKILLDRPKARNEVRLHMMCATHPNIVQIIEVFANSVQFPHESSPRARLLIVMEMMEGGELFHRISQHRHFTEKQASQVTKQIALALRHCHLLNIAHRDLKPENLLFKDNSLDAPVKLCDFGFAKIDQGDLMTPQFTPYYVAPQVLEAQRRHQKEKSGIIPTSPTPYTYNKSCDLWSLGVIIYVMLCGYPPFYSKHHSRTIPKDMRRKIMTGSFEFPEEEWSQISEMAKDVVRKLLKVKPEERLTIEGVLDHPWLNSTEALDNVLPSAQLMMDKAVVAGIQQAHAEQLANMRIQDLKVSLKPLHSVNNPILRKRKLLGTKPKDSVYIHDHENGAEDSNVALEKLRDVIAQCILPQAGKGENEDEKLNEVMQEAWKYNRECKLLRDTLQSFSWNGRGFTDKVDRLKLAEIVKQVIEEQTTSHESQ
The assay is described as follows: Inhibition of full-length recombinant human His-tagged MAPKAPK5 expressed in baculovirus expression system by Z'-LYTE assay.

The next assay deals with SRSF protein kinase 1 (Homo sapiens, UniProt Q96SB4). Briefly: Inhibition of full-length recombinant human His-tagged SRPK1 expressed in baculovirus expression system by Z'-LYTE assay.
Assay [3] concerns the target Serine/threonine-protein kinase Chk2 (Homo sapiens, UniProt O96017). The assay is described as follows: Inhibition of full-length recombinant human His-tagged CHEK2 expressed in baculovirus expression system by Z'-LYTE assay.
Assay [4] addresses T2, Tyrosine-protein kinase ITK/TSK (Homo sapiens, UniProt Q08881).
T2 sequence (Q08881 whole entry): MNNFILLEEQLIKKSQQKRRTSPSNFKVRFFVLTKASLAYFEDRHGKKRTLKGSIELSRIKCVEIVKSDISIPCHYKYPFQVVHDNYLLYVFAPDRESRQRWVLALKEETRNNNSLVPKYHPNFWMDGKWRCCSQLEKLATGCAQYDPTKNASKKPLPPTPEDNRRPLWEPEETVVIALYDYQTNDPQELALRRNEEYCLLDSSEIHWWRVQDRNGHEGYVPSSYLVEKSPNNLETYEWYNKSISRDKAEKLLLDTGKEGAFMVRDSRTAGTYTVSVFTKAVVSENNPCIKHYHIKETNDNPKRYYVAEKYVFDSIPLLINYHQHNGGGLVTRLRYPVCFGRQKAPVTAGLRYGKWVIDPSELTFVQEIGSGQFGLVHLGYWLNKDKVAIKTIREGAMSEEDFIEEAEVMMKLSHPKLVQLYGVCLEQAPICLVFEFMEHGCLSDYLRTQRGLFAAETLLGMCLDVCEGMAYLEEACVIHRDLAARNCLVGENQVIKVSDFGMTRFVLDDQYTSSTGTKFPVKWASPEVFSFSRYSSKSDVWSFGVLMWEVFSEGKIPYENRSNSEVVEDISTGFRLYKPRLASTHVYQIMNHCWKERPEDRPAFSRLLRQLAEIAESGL
Briefly: Inhibition of full-length recombinant human GST-tagged ITK expressed in baculovirus expression system by Z'-LYTE assay.

The target of assay [5] is Leucine-rich repeat serine/threonine-protein kinase 2 (Homo sapiens, UniProt Q5S007). The assay is described as follows: Inhibition of recombinant human GST-tagged LRRK2 catalytic domain expressed in baculovirus expression system by Adapta assay.
In assay [6] the target is Rho-associated protein kinase 2 (Homo sapiens, UniProt O75116). The assay is described as follows: Inhibition of recombinant human N-terminal GST-tagged ROCK2 (1 to 552 residues) catalytic domain expressed in baculovirus expression system by Z'-LYTE assay.
For assay [7], the target named is T3, Protein kinase C zeta type (Homo sapiens, UniProt Q05513).
T3 sequence (Q05513 whole entry): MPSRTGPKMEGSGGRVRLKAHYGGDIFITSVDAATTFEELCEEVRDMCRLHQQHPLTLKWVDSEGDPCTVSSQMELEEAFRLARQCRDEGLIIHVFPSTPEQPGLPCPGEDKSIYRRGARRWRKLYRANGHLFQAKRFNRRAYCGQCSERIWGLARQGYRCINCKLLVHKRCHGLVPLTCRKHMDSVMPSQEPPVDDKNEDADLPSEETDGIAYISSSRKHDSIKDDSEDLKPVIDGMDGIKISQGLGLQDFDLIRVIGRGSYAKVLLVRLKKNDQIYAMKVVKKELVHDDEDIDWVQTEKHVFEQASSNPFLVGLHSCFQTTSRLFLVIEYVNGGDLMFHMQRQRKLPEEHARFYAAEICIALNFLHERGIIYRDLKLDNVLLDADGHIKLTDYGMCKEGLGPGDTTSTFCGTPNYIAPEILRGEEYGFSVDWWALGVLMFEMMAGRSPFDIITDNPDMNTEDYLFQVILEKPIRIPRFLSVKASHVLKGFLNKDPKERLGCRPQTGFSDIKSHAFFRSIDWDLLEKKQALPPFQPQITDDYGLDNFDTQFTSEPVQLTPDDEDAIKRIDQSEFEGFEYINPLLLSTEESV
Briefly: Inhibition of full-length recombinant human PRKCZ expressed in baculovirus expression system by Z'-LYTE assay.

The target of assay [8] is T4, Inhibitor of nuclear factor kappa-B kinase subunit epsilon (Homo sapiens, UniProt Q14164).
T4 sequence (Q14164 whole entry): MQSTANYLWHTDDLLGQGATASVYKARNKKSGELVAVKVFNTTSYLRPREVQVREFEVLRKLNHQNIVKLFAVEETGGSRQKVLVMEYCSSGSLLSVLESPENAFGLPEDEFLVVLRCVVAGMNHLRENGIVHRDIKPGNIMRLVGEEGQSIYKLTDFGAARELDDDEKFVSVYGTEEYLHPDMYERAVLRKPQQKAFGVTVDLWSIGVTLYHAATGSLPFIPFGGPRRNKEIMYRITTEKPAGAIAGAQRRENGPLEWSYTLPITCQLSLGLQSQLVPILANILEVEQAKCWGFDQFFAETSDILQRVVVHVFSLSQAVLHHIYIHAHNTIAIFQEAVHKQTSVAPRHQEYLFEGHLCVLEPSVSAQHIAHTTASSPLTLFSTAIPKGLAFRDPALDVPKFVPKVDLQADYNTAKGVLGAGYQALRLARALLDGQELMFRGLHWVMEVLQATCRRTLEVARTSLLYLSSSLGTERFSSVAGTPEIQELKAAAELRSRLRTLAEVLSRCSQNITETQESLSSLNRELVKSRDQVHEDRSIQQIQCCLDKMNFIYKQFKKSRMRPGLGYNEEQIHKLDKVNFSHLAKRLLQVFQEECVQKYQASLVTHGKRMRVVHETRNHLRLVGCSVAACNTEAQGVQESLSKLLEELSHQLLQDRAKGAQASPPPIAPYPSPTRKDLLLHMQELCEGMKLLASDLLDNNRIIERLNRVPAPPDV
The assay is described as follows: Inhibition of full-length recombinant human GST-tagged IKK-epsilon expressed in baculovirus expression system by Z'-LYTE assay.

Bounds are passed on as bounds.

Chain of Rho-associated protein kinase 2 (O75116 whole entry, the tested form may be a part): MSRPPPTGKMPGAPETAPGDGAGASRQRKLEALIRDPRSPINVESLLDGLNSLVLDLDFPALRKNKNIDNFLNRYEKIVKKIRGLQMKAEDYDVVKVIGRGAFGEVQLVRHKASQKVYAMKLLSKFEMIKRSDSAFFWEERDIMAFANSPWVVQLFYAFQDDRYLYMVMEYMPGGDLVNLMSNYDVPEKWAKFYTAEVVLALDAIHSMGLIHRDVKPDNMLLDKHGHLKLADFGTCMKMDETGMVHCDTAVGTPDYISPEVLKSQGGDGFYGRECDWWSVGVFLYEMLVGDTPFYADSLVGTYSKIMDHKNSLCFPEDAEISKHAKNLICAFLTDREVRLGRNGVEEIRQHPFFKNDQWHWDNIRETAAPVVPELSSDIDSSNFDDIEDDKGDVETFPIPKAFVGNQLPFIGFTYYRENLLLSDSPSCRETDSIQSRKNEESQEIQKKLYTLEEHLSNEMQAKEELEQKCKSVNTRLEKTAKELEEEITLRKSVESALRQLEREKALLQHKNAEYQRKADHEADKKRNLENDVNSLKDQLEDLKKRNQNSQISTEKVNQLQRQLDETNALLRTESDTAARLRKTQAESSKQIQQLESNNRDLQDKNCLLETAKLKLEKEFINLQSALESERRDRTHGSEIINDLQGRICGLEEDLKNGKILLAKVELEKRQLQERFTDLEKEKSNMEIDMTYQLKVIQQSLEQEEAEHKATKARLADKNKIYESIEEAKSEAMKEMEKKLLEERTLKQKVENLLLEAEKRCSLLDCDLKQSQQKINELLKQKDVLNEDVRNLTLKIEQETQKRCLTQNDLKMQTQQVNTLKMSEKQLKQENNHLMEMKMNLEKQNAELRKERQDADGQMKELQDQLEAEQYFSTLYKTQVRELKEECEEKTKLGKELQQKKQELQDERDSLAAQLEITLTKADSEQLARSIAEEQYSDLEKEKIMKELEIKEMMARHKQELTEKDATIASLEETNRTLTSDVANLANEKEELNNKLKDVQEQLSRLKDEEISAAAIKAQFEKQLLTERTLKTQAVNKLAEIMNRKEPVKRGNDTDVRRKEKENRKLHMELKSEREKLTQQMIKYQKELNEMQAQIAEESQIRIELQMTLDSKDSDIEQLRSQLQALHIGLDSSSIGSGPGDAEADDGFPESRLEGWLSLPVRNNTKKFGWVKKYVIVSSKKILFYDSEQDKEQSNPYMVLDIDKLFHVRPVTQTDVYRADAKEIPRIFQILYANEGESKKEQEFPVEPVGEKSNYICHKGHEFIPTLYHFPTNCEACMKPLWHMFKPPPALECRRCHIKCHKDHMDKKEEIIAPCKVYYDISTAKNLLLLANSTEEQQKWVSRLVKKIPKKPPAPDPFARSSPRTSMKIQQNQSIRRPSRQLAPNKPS
Chain of Leucine-rich repeat serine/threonine-protein kinase 2 (Q5S007 whole entry, the tested form may be a part): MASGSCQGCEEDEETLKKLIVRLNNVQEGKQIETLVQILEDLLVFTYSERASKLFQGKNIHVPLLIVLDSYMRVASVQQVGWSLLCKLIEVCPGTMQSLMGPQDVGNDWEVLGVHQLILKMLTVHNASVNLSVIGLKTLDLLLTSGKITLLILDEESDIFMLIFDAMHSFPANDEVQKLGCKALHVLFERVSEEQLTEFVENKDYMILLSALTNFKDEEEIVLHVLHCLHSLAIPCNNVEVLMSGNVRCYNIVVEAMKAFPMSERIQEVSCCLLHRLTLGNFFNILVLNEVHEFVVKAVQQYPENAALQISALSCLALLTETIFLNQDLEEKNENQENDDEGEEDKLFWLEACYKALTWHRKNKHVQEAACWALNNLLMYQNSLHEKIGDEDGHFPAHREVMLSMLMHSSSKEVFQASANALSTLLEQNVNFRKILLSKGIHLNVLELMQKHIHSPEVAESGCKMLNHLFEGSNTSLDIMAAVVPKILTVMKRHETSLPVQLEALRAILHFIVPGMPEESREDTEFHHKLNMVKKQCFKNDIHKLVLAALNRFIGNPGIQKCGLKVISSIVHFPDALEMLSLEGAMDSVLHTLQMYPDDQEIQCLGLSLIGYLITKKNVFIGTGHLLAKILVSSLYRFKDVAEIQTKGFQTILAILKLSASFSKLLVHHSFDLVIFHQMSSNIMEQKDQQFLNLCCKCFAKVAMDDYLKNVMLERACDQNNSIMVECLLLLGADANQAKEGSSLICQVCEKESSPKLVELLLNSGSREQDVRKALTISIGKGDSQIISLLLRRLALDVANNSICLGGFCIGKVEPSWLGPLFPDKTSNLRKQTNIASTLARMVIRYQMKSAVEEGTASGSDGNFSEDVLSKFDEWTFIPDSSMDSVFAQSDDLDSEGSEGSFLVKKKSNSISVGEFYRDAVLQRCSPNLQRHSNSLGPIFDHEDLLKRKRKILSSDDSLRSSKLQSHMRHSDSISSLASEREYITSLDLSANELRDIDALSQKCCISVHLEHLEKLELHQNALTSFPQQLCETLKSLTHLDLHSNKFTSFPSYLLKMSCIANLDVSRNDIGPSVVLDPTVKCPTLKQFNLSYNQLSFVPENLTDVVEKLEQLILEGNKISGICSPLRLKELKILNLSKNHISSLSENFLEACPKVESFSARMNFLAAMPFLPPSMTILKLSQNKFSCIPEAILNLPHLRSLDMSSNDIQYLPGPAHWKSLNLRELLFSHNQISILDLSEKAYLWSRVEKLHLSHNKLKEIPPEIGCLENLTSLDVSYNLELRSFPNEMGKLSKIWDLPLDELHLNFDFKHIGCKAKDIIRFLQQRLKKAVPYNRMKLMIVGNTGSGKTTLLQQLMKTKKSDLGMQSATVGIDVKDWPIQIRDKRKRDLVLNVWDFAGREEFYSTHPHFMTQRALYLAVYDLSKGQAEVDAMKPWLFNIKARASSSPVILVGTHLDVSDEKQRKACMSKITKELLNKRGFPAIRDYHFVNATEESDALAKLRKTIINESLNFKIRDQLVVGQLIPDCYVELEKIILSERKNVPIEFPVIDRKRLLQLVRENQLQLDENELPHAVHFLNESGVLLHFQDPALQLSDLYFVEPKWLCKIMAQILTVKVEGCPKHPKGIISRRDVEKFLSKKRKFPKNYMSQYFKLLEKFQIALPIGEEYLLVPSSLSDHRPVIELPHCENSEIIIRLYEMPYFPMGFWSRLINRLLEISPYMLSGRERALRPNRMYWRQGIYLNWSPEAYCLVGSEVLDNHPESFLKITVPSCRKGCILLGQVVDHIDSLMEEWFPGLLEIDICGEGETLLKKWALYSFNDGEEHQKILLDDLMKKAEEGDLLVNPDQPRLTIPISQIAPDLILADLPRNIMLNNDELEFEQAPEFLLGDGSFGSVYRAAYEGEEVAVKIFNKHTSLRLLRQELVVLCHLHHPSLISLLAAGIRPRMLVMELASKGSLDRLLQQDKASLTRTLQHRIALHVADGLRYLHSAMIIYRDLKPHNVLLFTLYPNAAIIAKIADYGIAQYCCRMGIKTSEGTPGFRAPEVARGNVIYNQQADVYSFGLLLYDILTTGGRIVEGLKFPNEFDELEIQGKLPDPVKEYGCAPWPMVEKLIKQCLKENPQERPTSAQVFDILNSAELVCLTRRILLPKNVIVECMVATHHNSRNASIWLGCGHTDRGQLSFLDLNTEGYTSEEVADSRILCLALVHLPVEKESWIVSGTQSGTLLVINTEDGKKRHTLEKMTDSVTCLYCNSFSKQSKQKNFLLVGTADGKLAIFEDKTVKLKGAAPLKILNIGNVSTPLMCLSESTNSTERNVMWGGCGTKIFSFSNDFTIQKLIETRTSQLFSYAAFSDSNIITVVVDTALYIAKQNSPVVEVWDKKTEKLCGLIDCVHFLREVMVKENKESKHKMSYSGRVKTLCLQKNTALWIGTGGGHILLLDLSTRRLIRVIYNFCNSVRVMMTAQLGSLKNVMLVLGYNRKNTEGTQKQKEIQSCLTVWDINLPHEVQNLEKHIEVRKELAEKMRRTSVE
Chain of Serine/threonine-protein kinase PAK 1 (Q13153 whole entry): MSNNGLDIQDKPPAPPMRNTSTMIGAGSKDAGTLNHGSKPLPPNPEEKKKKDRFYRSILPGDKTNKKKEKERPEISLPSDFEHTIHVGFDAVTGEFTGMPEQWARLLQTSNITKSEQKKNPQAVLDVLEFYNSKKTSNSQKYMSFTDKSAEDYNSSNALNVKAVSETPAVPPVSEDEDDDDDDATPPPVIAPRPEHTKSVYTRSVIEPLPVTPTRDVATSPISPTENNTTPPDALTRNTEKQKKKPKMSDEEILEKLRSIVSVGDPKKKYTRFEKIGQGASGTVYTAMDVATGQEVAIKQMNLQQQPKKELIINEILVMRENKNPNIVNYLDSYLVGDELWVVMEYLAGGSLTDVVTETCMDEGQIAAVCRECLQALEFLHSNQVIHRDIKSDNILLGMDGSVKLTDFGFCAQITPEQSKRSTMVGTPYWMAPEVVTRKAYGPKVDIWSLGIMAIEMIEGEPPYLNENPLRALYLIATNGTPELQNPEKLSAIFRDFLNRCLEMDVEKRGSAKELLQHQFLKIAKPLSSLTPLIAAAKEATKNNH
Chain of Serine/threonine-protein kinase Chk2 (O96017 whole entry): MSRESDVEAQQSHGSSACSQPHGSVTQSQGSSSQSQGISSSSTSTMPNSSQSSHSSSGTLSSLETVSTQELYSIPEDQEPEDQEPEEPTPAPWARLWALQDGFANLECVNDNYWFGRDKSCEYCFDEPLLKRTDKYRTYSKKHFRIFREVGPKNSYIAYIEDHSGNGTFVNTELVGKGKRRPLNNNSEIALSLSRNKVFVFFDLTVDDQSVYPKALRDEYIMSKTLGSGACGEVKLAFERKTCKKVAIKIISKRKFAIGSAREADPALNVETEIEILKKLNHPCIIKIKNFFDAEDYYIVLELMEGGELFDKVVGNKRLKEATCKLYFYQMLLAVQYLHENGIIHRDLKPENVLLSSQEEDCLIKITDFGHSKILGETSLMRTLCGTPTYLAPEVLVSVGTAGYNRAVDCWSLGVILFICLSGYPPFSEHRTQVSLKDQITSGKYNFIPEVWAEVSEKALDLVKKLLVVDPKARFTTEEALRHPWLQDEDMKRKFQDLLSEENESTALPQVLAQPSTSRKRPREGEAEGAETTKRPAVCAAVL

For the molecule `Cn1cc(-c2cnc3c(-c4csc(C(=O)NCC(F)(F)F)c4)cnn3c2)cn1`, the IC50 is 6200 nM in assay [1]; 19000 nM in assay [2]; 28000 nM at SRSF protein kinase 1; 420 nM in assay [3]; 94 nM in [4]; below 10 nM in assay [5]. Also, the values for the IC50 in [6], in [7] and in [8] were 560 nM, 1800 nM and below 10 nM, respectively.
Regarding `Cc1sc(C(=O)N[C@@H]2[C@H](N)CCCC2(F)F)cc1-c1cnn2cc(Cl)cnc12`, the IC50 in assay [1] is 2100 nM; in [2], above 100000 nM; on SRSF protein kinase 1, 12000 nM; in assay [3], 390 nM; in assay [4] it was 4200 nM; in assay [5], 62 nM. The IC50 amounted to 1100 nM in assay [6], 1100 nM in assay [7] and 48 nM in [8].
Regarding `O=C(NCC(F)(F)F)c1cc(-c2cnn3cc(-c4ccc(OCCN5CCCCC5)cc4)cnc23)cs1`, the IC50 in [1] is 8300 nM; in [2], 9600 nM; at SRSF protein kinase 1, above 100000 nM; in [3], 450 nM; in [4], 26 nM; in assay [5] it was 14 nM. The IC50 in assay [6] is 430 nM; in assay [7], 1900 nM; in assay [8] it was below 10 nM.
For the molecule `Cn1cc(-c2cnc3c(-c4csc(C(=O)N[C@@H]5CCCC[C@@H]5N)c4)cnn3c2)cn1` (racemic), the IC50 came to 24 nM in assay [1]; 1400 nM in assay [2]; 140 nM at SRSF protein kinase 1; 24 nM in [3]; 26 nM in [4]; 3.1 nM in assay [5]. In addition, the values for the IC50 in assay [6], in assay [7] and in assay [8] were 52 nM, 40 nM and 7.1 nM, respectively.
